Laboratory results published in BindingDB's records for doi:10.1021/jm800527x (Roche Palo Alto, 2008).
pEC50: −log10 of the molar value.

Columns and labels:
[1] = target: T1, Gag-Pol polyprotein [588-1027,K691N,Y769C]/[588-1147,K691N,Y769C] (Human immunodeficiency virus 1, UniProt P04585, K691N/Y769C); experiment: HIV-1 Reverse Transcriptase Assay; conditions: pH 8; 30 °C
T1 construct: 588-1027; 588-1147
Text: (§1) IC50s were obtained from the inhibition of the RNA-dependent DNA polymerase activity of the HIV-1 reverse transcriptase enzyme using a primer extension assay. EC50s were obtained from inhibition of virus-induced cell-death in MT-4 cells.

[2] = target: T2, Gag-Pol polyprotein [588-1027] (Human immunodeficiency virus type 1 group M subtype B (isolate HXB2), UniProt P04585); experiment: HIV-1 Reverse Transcriptase Assay; conditions: pH 8; 30 °C
T2 construct: 588-1027
Text: as §1

| SMILES | pEC50 [1] | pEC50 [2] |
| --- | --- | --- |
| N#Cc1cc(Cl)cc(Oc2c(Br)ccc(Cc3n[nH]c4nccnc34)c2F)c1 [3-(6-bromo-2-fluoro-3-{1H-pyrazolo[3,4-b]pyrazin-3-ylmethyl}phenoxy)-5-chlorobenzonitrile] | < 7.00 | < 7.60 |
| Cc1cc(C#N)cc(Oc2ccc(Cc3n[nH]c4nnccc34)cc2Br)c1 [3-(2-bromo-4-{1H-pyrazolo[3,4-c]pyridazin-3-ylmethyl}phenoxy)-5-methylbenzonitrile] | < 7.00 | – |
